From publication PMC10059125, “The Pharmaceutical Formulation Plays a Pivotal Role in Hydroxytyrosol Pharmacokinetics” (Pharmaceutics, 2023)
Where two headings read alike, the source gives them in different places. One block for each compound: values may come before it.

Key:
[1] = Plasma pharmacokinetics of free DOPET in healthy volunteers after oral enteric-coated capsules (DOPET in EVOO), non-compartmental analysis; format: in vivo, human
Description: (§1) The study protocol, approved by the local ethics committee (Register Protocol No. 146 17/05/2018), was conducted on 20 healthy Caucasian volunteers, aged 25–60 years with BMI ranging from 19 and 25 kg/m^2, enrolled at the University hospital facility of the Clinical Research Unit of the Department of Biomedicine and Prevention, University of Tor Vergata (Rome, Italy). Two enteric-coated capsules, each containing 7.5 mg of DOPET, were administered orally. All subjects fulfilled the following eligibility criteria: non-smokers, non-alcoholics, healthy diet, and no drugs during the experimental procedure. The administration was preceded by a 4-day washout with polyphenols and an alcoholic-free diet to avoid any interference, and by a 10-h fasting period. The study was conducted in compliance with the Declaration of Helsinki, and the selected subjects agreed to the procedure by reviewing and signing the relevant, informed consensus.
Blood samples were collected into 10 mL test tubes containing EDTA from a subcutaneous vein using a permanent catheter inserted into the forearm at baseline (T0) and 45, 90, 123, 150, 184, 247, 386, and 440 min. Samples were centrifuged at 1700× g for 10 min at 4 °C and the obtained plasma was aliquoted into test tubes containing citric acid (2 M, 10% v/v).
(§2) Plasma and urine samples were processed, before and after hydrolysis, according to Alemán-Jiménez et al., with some modifications. Briefly, plasma and urine samples were thawed at room temperature and centrifuged (10,000× g for 5 min). Sample supernatants (100 and 400 μL, respectively) were hydrolyzed by incubation with 300 UI (plasma) and 1500 UI (urine) of β-glucuronidase from Helix pomatia for 2 h at 37 °C, clarified with 200 μL of MeOH/HCl (0.2 M) and centrifuged at 10,000× g for 5 min. An SPE clean-up step, by using Strata X-AW cartridges (Phenomenex, Torrance, CA, USA) mounted on VacElut Cartridge Manifolds (Agilent Technologies, Inc., Santa Clara, CA, USA), was carried out. Cartridges were conditioned and equilibrated with 2 mL of MeOH/HCOOH (98:2, v/v) and 2 mL of water/HCOOH (98:2, v/v), respectively. After sample loading, SPE cartridges were washed with water/HCOOH (98:2, v/v). Analytes were eluted with 1 mL of MeOH/HCOOH (98:2, v/v) and dried by a gentle stream of nitrogen at room temperature. Extracts were recovered with 200 μL of the mobile phase used for the LC-DAD-ESI-MS/MS analyses (see Section 2.4). Quality control samples were prepared by spiking DOPET and metabolites (DOPAC, HVA, and MOPET) in baseline control plasma and urine samples at two different concentrations (1.2 ng/mL and 5.3 ng/mL) correspondent to the limit of quantification (LOQ) in plasma and urine samples, respectively. Both precision (CV < 10%) and accuracy (≥90%) recorded in three replicates were acceptable according to ICH and FDA guidelines.
Plasma and urinary DOPET and metabolites were analyzed by LC-DAD-ESI-MS/MS (Agilent Technologies, Inc., Santa Clara, CA, USA). Chromatographic analysis was carried out by a Luna Omega PS C18 column (150 mm × 2.1 mm, 5 µm; Phenomenex, Torrance, CA, USA) at 25 °C by using a mobile phase consisting of 0.1% HCOOH (Solvent A) and methanol (Solvent B) according to the following elution program: 0–18 min, 5% B; 18–21 min, 95% B; 21–30 min, 5% B; 30–35 min, 5%. The injection volume was 10 µL, and the flow rate was 0.4 mL/min. The UV–Vis spectra were recorded, ranging from 190 to 400 nm, and chromatograms were acquired at 280 nm. The experimental parameters of the mass spectrometer (ion trap, model 6320, Agilent Technologies, Santa Clara, CA, USA) equipped with an electrospray ionization interface operating in the negative (ESI−) and positive (ESI+) ionization mode were set as follows: 3.5 kV capillary voltage, 40 psi nebulizer (N2) pressure, 350 °C drying gas temperature, 9 L/min drying gas flow, and 40 V skimmer voltage. The acquisition was carried out in full-scan mode (90–1000 m/z). […]

[2] = Urinary excretion of DOPET and metabolites in healthy volunteers after oral enteric-coated capsules; format: in vivo, human; conditions: for cumulative metabolites distribution in urine, mean relative area percentage with respect to all identified and unidentified compounds: 24 h urine, oral 15 mg (97.3 µmole) DOPET; for mean peak in urine: approximately 6 h after oral 15 mg (97.3 µmole) DOPET, n = 20
Description: as §1
Urine samples were collected at baseline (T0) and, after the intervention, at the following mean times: 3.45, 4.18, 5.14, 6.16, 8.19, 12, and 24 h in sterile, dark polystyrene tubes (100 mL) with screw caps with 10% L-ascorbic acid as a chemical preservative. Both plasma and urine samples were immediately shipped in dry ice to the Department of Chemical, Biological, Pharmaceutical and Environmental Sciences, University of Messina (Italy) for chemical analyses, stored at −80 °C and processed within 48 h.
as §2
Plasma and urinary DOPET and metabolites were analyzed by LC-DAD-ESI-MS/MS (Agilent Technologies, Inc., Santa Clara, CA, USA). Chromatographic analysis was carried out by a Luna Omega PS C18 column (150 mm × 2.1 mm, 5 µm; Phenomenex, Torrance, CA, USA) at 25 °C by using a mobile phase consisting of 0.1% HCOOH (Solvent A) and methanol (Solvent B) according to the following elution program: 0–18 min, 5% B; 18–21 min, 95% B; 21–30 min, 5% B; 30–35 min, 5%. The injection volume was 10 µL, and the flow rate was 0.4 mL/min. The UV–Vis spectra were recorded, ranging from 190 to 400 nm, and chromatograms were acquired at 280 nm. […]

[3] = parameters: method as in PMID 20045462; conditions: single oral dose 2.5 mg/kg b.w., 10 subjects; cited from earlier work
[4] = parameters: method as in PMID 17870451; conditions: 100 g of olives containing 76.73 mg of DOPET, 7 healthy men; cited from earlier work
[5] = parameters: method as in PMID 12765992; conditions: 25 mL of EVOO, 6 healthy volunteers; cited from earlier work
[6] = parameters: method as in PMID 23766098; conditions: cited from earlier work; for Cmax: olive leaf extract
[7] = parameters: method as in PMID 32524230; conditions: 5 mg DOPET conveyed in EVOO, 20 volunteers; cited from earlier work
[8] = parameters: method as in PMID 10692578; conditions: 24 h; enriched olive oils, 6 healthy male volunteers; cited from earlier work
[9] = parameters: method as in doi:10.1016/j.jff.2016.02.046; conditions: cited from earlier work
[10] = parameters: method as in doi:10.1016/j.foodchem.2011.07.101; conditions: after chronic or acute consumption of olive leaf supplements, 55 healthy young adults; cited from earlier work
[11] = parameters: method as in PMID 28452954; conditions: in vitro; cited from earlier work
[12] = human, mean, n = 20, free DOPET in plasma, oral 15 mg DOPET (2 cps)

Compound: C/C=C1/[C@H](O[C@@H]2O[C@H](CO)[C@@H](O)[C@H](O)[C@H]2O)OC=C(C(=O)OC)[C@H]1CC(=O)OCCc1ccc(O)c(O)c1 [oleuropein]
detection in urine samples [10]: neither oleuropein nor DOPET was detected

Compound: COc1cc(CC(=O)O)ccc1O [HVA, homovanillic acid]
mean peak in urine [2]: 18.39 µmol

Compound: OCCc1ccc(O)cc1 [tyrosol]
urine excretion with respect to the dose administered [8]: 21–24%

More lines, main results first:

bioavailability compared with the literature ([1]; enteric-coated capsule, DOPET in EVOO, versus previous results at the same dose administered): about 2.5 times
Cmax ([1]; human, plasma, po, 15 mg, mean, n = 20, free DOPET in plasma, oral 15 mg DOPET (2 cps), read-out: Cmax): 5.5 ng/mL
Tmax [1, 12]: 2.05 h
half-life [1, 12]: 2.51 h
AUCextrap_pred ([1]; mean, n = 20, fraction of total AUC due to extrapolated AUC, oral 15 mg DOPET): 18.23%
Cmax ([1]; mean, n = 20, free DOPET in plasma, oral 15 mg DOPET (2 cps)): 5.48 ng/mL
cumulative metabolites distribution in urine, mean relative area percentage with respect to all identified and unidentified compounds [2]: 8.49%
mean peak in urine [2]: 4.67 µmol
Compound: OCCc1ccc(O)c(O)c1 [DOPET, 3,4-dihydroxyphenyl ethanol]
Cmax [3]: 1110 nM
time of maximum plasma concentration [3]: 13 min
plasma concentration at Cmax [4]: 3150 ng/mL
time to Cmax [4]: 1 h
Cmax [5]: 25.83 ng/mL
Tmax [5]: 0.967 h
Cmax ([6]; capsule matrix): 56 ng/mL
Cmax ([6]; liquid matrix): 59 ng/mL
decrease of Tmax ([6]; passing from encapsulated to the liquid formulation): about 30 min
Cmax [7]: 3.79 ng/mL
time to Cmax [7]: 30 min
urine excretion with respect to the dose administered [8]: 29–40%
urine levels of DOPET and its metabolites, share of the DOPET administered ([9]; 5 mg of DOPET/day for one week): 21%
urine levels of DOPET and its metabolites, share of the DOPET administered ([9]; 25 mg of DOPET/day for one week): 28%
forms of DOPET excreted in urine ([9]; 5 or 25 mg of DOPET/day for one week): 0–0.02%
detection in urine samples [10]: neither oleuropein nor DOPET was detected
genotoxicity or mutagenicity [11]: does not exhibit any genotoxicity or mutagenicity

cumulative metabolites distribution in urine, mean relative area percentage with respect to all identified and unidentified compounds [2]: 13.48%
mean peak in urine [2]: 9.93 µmol
Compound: O=C(O)Cc1ccc(O)c(O)c1 [DOPAC, 3,4-dihydroxyphenylacetic acid]

cumulative metabolites distribution in urine, mean relative area percentage with respect to all identified and unidentified compounds [2]: 0.94%
mean peak in urine [2]: 0.44 µmol
Compound: COc1cc(CCO)ccc1O [MOPET, 4-hydroxy-3-methoxyphenethanol]
